One data set has as its system RSV. Briefly: RSV plaque reduction assay (Comparative Example 1, strain not stated). Type of data set: cell-based. The settings on record: human respiratory syncytial virus; read-out: RSV Plaque Reduction assay IC50 (Table 4). The method, then:
Plaque Reduction Assay: […] After an overnight incubation at 37° C. in a humidified 5% CO2 atmosphere, the monolayer of cells should be approximately 90% confluent. Antiviral compounds were titrated in pre-warmed Serum Free (SF) Optimem in a U-bottom 96 well plate. […] Media was then removed from cells and replaced with PBS (100 μl/well). RSV stock was thawed and diluted in SF Optimem media to 4000 PFU/mLl. An equal volume of virus was added to compounds on the titration plate. PBS was removed from cells which were then inoculated with the virus/compound solution (50 μL/well). Cells were incubated for 2 h in a 37° C.+5% CO2 humidified incubator to allow infection. […] Cells were subsequently incubated for 48 h at 37° C.+5% CO2 in a humidified incubator. Immunostaining Procedure: Media was removed from cells and the monolayer washed with PBS. Cells were fixed with ice cold 80% Acetone in PBS (100 μl/well) for 20 mins at −20° C. […] Blocking solution was removed and plates washed once with PBS-T. Primary antibody in blocking solution was added to plates (50 μl/well) and incubated for 1 h at 37° C. Plates were then washed 3 times with PBS-T. Secondary antibody in blocking solution was added to plates (50 μL/well) and incubated for 1 h at 37° C. in the dark. […] Data Analysis: Images obtained were saved and plaque numbers counted with the aid of computer imaging software. […]
In general terms: In a plaque reduction assay, fewer plaques than in the control indicate reduced infectivity or spread.

Data set [1] is described as follows: Liver microsomal stability, dog. Type of data set: in vitro ADME. The note with it: male, Beagle, pooled liver microsomes, pH 7.4, Comparative Example 2, read-out: Liver Microsomal Stability T1/2, dog (Table 5). The method, then: Microsomal Incubation: Experimental Procedure
Pooled human liver microsomes (pooled male and female), pooled rat liver microsomes (male Sprague Dawley rats) and pooled dog liver microsomes (male Beagle dog) are purchased from a reputable commercial supplier and stored at −80° C. prior to use.
Microsomes (final protein concentration 0.5 mg/mL), 0.1 M phosphate buffer pH 7.4 and test compound (final substrate concentration 3 μM; final DMSO concentration 0.25%) are pre-incubated at 37° C. prior to the addition of NADPH (final concentration 1 mM) to initiate the reaction. The final incubation volume is 50 μL. A control incubation is included for each compound tested where 0.1 M phosphate buffer pH 7.4 is added instead of NADPH (minus NADPH). Two control compounds are included with each species. All incubations are performed singularly for each test compound.
Compounds are incubated for 0, 5, 15, 30 and 45 min. The control (minus NADPH) is incubated for 45 min only. The reactions are stopped by transferring 25 μL of incubate to 50 μL methanol at the appropriate time points. The termination plates are centrifuged at 2,500 rpm for 20 min at 4° C. to precipitate the protein. Following protein precipitation, the sample supernatants are combined in cassettes of up to 4 compounds, internal standard is added and samples analysed by LC-MS/MS. From a plot of ln peak area ratio (compound peak area/internal standard peak area) against time, the gradient of the line is determined. Subsequently, half-life and intrinsic clearance are calculated
On the technique in general: Microsomes from liver hold many membrane-bound enzymes, among them those of drug oxidation.

Another data set concerns RSV-A5 (6470). Briefly: RSV plaque reduction assay, RSV-A5 (6470), Vero cells. The class given is cell-based. The note with it: human respiratory syncytial virus, n = 1. The procedure: (§1) Plaque Reduction Assay: […] After an overnight incubation at 37° C. in a humidified 5% CO2 atmosphere, the monolayer of cells should be approximately 90% confluent. Antiviral compounds were titrated in pre-warmed Serum Free (SF) Optimem in a U-bottom 96 well plate. […] Media was then removed from cells and replaced with PBS (100 μl/well). RSV stock was thawed and diluted in SF Optimem media to 4000 PFU/mLl. An equal volume of virus was added to compounds on the titration plate. PBS was removed from cells which were then inoculated with the virus/compound solution (50 μL/well). Cells were incubated for 2 h in a 37° C.+5% CO2 humidified incubator to allow infection. […] Immunostaining Procedure: Media was removed from cells and the monolayer washed with PBS. Cells were fixed with ice cold 80% Acetone in PBS (100 μl/well) for 20 mins at −20° C. […] Blocking solution was removed and plates washed once with PBS-T. Primary antibody in blocking solution was added to plates (50 μl/well) and incubated for 1 h at 37° C. Plates were then washed 3 times with PBS-T. Secondary antibody in blocking solution was added to plates (50 μL/well) and incubated for 1 h at 37° C. in the dark. […] Data Analysis: Images obtained were saved and plaque numbers counted with the aid of computer imaging software. […]

Another data set relates to RSV-A5 (6440). Briefly: RSV plaque reduction assay, RSV-A5 (6440), Vero cells. The class given is cell-based. The settings on record: human respiratory syncytial virus, n = 1. The procedure:
as §1

Data set [2] can be described thus: Plasma protein binding (equilibrium dialysis), human. Type of data set: in vitro ADME. The note with it: plasma (100%), pH 7.4, read-out: PPB fraction unbound, human. The method, then:
Protein Binding Determination: Experimental Procedure
Solutions of test compound (5 μM, 0.5% final DMSO concentration) are prepared in buffer (pH 7.4) and 100% species-specific plasma. The experiment is performed using equilibrium dialysis with the two compartments separated by a semi-permeable membrane. The buffer solution is added to one side of the membrane and the plasma solution to the other side. After equilibration, samples are taken from both sides of the membrane. Standards are prepared in plasma and buffer and are incubated at 37° C.
Test compound incubations are performed in duplicate. A control compound is included in each experiment.
The solutions for each batch of compounds are combined into two groups (protein-free and protein-containing), then cassette analysed by LC-MS/MS using two sets of calibration standards for protein-free (7 points) and protein-containing solutions (6 points).

A further data set relates to RSV A2 (PRNT1). Briefly: RSV plaque reduction assay, A2 (PRNT1), Vero cells. The class given is cell-based, respiratory syncytial virus. The settings on record: human respiratory syncytial virus, Vero; n = 4. The procedure: Plaque Reduction Assay: […] After an overnight incubation at 37° C. in a humidified 5% CO2 atmosphere, the monolayer of cells should be approximately 90% confluent. Antiviral compounds were titrated in pre-warmed Serum Free (SF) Optimem in a U-bottom 96 well plate. […] Media was then removed from cells and replaced with PBS (100 μl/well). RSV stock was thawed and diluted in SF Optimem media to 4000 PFU/mLl. An equal volume of virus was added to compounds on the titration plate. PBS was removed from cells which were then inoculated with the virus/compound solution (50 μL/well). Cells were incubated for 2 h in a 37° C.+5% CO2 humidified incubator to allow infection. […] Immunostaining Procedure: Media was removed from cells and the monolayer washed with PBS. Cells were fixed with ice cold 80% Acetone in PBS (100 μl/well) for 20 mins at −20° C. […] Blocking solution was removed and plates washed once with PBS-T. Primary antibody in blocking solution was added to plates (50 μl/well) and incubated for 1 h at 37° C. Plates were then washed 3 times with PBS-T. Secondary antibody in blocking solution was added to plates (50 μL/well) and incubated for 1 h at 37° C. in the dark. […] Plates were scanned on the Odyssey Imager (Li-Cor Biosciences) at a resolution of […], medium quality and level 5 intensity in the […]. Data Analysis: Images obtained were saved and plaque numbers counted with the aid of computer imaging software. EC50 values for compounds were derived from dose response curves [three variable log (inhibitor) vs response] obtained using Graphpad Prism software.

The test system of the next data set is RSV-BA (Brasil). Briefly: RSV plaque reduction assay, RSV-BA (Brasil), Vero cells. The settings on record: human respiratory syncytial virus, n = 1. Type of data set: cell-based. The procedure: as §1

A word on the IC50: it is the concentration that gives 50% inhibition. The term IC90 denotes the concentration at which the effect reaches the 90% level. Higher therefore signals a need for much substance. In general, fraction unbound refers to the share of the substance not bound to proteins or other matrix.

On to `CC(C)CCn1c(CN2C(=O)C3(CC3)c3ccccc32)nc2cc(CN)ccc21` [RV039, 1′-((5-(aminomethyl)-1-isopentyl-1H-benzo[d]imidazol-2-yl)methyl)spiro[cyclopropane-1,3′-indolin]-2′-one, reference compound], for which, in the data set with RSV, the IC50 is 31 nM. In addition, in data set [1], the half-life at 3 μM was above 1.67 h.
For `NCc1ccc2c(c1)nc(CN1C(=O)C3(CC3)c3ccc(F)cc31)n2CCCC(F)(F)F` [Example 1, 1′-{[5-(Aminomethyl)-1-(4,4,4-trifluorobutyl)-1H-1,3-benzodiazol-2-yl]methyl}-6′-fluoro-1′,2′-dihydrospiro[cyclopropane-1,3′-indole]-2′-one], the IC50 in the data set with RSV-A5 (6470) is 10.3 nM; with RSV-A5 (6440) it was 5.7 nM; with RSV A2 (PRNT1) it was 2.1 nM; with RSV-BA (Brasil), 2.1 nM. Further, the IC90 in the data set on RSV-A5 (6470) was determined as 81 nM; in the data set on RSV-A5 (6440), 106 nM; in the data set on RSV A2 (PRNT1) it was 13.5 nM; in the data set with RSV-BA (Brasil), 34.5 nM. Further, the fraction unbound at 5 μM in data set [2] came to 0.67.
